Assay results: the supplement of paper PMC12463676, “Small-molecule dissolution of stress granules by redox modulation benefits ALS models” (Nature Chemical Biology, 2025)

Experiments:
[1] = compound: NC(=O)CCCCC1CCSS1 [lipoamide]; assay: thermal stability z-score vs DMSO; higher = more thermally stabilized by treatment; conditions: HeLa, lipoamide concentration 100 µM
Protocol: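 Cellular thermal proteome profiling in HeLa cells. Cells were treated with 100 µM lipoamide for 1 h, with or without 1 mM arsenate for a further 1 h, then heated to ten temperatures (37-66.3 °C), and soluble protein was quantified by TMT mass spectrometry relative to 0.1% DMSO controls. The thermal stability score (sum of log2 fold changes minus the abundance score) was transformed to a z-score; mean of n = 3 experiments.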

[2] = compound: O=[As]([O-])(O)O.[K+] [potassium arsenate]; assay: as above; conditions: HeLa; arsenate concentration 1 mM
Protocol: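 Cellular thermal proteome profiling in HeLa cells treated with 1 mM arsenate for 1 h (DMSO pretreatment), heated to ten temperatures (37-66.3 °C). Soluble protein was quantified by TMT mass spectrometry relative to DMSO controls; the thermal stability score was transformed to a z-score; mean of n = 3 experiments.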

[3] = arsenate co-treatment: 1 mM arsenate 1 h
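Note: each temperature applied for 3 min, abundance score taken as mean log2 fold change at the two lowest temperatures, z-score obtained by mean subtraction and division by SD.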

Sequence of UniProt Q9HC07 (Q9HC07 whole entry): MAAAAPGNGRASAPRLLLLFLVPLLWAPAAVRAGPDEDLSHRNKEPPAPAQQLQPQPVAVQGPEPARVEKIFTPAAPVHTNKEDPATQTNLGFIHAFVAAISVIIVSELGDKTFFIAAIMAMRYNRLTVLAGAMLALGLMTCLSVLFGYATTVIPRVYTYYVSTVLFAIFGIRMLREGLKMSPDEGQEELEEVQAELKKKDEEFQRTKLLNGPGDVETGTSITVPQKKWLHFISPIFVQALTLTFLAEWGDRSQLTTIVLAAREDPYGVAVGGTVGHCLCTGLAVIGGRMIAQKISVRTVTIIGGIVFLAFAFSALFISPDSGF
Sequence of UniProt Q16527 (Q16527 whole entry): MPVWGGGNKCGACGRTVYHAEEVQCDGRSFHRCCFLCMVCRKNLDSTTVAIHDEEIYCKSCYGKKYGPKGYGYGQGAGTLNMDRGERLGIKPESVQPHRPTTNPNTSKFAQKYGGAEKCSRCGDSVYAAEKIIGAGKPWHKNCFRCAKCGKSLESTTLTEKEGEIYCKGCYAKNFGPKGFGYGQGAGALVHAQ
Sequence of UniProt O75368 (O75368 whole entry): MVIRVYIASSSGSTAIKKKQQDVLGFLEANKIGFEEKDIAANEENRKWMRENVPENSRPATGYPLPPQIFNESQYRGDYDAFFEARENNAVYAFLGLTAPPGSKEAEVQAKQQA
Sequence of UniProt Q9NYP9 (Q9NYP9 whole entry): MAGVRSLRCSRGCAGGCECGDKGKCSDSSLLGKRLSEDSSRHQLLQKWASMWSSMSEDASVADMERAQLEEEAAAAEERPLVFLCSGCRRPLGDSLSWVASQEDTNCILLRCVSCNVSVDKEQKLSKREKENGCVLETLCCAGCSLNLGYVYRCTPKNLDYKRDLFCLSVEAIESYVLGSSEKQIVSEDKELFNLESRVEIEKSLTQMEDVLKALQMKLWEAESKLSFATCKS
Sequence of UniProt P19838 (P19838 whole entry): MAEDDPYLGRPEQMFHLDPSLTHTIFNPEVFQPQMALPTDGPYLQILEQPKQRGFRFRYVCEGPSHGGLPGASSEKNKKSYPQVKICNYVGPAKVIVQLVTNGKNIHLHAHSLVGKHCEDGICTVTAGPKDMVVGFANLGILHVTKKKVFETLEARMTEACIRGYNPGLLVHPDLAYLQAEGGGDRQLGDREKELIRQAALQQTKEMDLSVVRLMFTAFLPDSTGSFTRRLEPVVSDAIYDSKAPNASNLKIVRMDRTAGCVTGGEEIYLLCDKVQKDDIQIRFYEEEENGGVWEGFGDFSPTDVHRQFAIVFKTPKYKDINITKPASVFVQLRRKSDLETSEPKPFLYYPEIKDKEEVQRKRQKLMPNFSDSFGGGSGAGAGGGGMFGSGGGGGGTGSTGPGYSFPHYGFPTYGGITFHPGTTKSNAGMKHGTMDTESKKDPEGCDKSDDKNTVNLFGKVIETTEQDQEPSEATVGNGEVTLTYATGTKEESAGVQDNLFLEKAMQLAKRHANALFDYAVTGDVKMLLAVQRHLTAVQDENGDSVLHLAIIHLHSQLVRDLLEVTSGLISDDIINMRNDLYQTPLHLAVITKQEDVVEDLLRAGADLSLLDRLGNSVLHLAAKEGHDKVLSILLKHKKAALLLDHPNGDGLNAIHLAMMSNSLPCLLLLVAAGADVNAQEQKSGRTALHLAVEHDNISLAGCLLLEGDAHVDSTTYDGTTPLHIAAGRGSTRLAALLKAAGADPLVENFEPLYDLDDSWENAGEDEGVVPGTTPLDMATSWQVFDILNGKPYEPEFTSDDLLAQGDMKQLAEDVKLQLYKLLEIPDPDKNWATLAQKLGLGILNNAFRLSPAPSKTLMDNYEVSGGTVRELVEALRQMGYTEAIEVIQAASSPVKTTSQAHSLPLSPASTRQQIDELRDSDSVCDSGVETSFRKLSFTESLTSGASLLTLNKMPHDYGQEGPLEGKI
Sequence of UniProt Q93009 (Q93009 whole entry, looked up): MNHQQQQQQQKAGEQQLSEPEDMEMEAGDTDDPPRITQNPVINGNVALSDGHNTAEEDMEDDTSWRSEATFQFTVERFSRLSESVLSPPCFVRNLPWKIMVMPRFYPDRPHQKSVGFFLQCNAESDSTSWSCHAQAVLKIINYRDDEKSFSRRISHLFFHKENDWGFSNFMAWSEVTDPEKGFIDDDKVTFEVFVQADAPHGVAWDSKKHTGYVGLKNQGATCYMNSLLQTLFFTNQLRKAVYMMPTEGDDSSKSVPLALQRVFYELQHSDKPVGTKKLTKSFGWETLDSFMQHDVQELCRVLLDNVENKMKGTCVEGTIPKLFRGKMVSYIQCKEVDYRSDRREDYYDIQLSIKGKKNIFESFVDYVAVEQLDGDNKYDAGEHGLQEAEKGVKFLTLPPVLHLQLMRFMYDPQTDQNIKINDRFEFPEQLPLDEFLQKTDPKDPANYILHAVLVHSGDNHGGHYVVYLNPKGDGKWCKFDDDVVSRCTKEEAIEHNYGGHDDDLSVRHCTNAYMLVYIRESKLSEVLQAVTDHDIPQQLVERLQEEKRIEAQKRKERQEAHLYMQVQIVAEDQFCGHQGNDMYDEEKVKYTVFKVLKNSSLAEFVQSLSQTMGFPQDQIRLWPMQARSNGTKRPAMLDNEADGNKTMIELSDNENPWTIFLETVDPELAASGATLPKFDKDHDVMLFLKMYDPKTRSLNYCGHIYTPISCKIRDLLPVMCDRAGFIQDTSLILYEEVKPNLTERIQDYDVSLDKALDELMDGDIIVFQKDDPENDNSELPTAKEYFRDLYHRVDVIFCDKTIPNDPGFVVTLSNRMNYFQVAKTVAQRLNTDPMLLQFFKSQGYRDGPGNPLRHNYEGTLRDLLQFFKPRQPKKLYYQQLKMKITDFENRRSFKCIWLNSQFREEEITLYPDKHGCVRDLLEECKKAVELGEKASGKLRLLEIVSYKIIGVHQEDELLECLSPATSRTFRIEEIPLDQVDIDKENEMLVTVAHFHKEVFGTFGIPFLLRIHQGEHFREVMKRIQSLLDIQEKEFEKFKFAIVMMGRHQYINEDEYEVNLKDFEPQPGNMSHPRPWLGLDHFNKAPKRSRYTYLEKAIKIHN
Sequence of UniProt O15541 (O15541 whole entry): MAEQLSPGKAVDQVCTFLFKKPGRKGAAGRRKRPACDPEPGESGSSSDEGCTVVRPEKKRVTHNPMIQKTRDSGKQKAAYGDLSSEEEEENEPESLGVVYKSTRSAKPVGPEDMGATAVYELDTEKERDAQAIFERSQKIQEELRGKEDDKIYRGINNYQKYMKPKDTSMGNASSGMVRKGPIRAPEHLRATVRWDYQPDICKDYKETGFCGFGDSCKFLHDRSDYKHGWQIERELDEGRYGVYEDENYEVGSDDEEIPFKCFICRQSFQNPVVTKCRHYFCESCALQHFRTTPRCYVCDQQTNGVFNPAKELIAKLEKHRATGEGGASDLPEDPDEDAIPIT
Sequence of UniProt Q9P258 (Q9P258 whole entry): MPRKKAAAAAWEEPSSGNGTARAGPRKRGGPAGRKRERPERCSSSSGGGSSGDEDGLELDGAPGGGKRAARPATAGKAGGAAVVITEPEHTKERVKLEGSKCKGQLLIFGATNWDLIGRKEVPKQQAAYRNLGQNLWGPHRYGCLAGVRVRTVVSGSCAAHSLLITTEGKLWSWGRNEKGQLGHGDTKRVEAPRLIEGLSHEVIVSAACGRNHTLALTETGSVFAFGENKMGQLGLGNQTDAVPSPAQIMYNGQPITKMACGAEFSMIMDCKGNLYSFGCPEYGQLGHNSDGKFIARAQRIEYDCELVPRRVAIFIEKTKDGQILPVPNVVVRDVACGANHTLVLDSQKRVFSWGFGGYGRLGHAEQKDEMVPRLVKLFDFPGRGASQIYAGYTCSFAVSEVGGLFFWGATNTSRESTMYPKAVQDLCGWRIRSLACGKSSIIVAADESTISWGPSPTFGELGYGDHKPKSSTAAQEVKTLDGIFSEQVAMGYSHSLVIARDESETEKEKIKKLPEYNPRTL
Sequence of UniProt Q8N5L8 (Q8N5L8 whole entry): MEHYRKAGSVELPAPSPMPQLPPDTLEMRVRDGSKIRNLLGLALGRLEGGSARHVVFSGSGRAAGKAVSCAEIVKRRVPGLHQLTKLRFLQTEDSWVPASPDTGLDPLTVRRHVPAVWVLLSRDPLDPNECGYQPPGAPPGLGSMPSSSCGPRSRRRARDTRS
Sequence of UniProt Q9Y2X9 (Q9Y2X9 whole entry): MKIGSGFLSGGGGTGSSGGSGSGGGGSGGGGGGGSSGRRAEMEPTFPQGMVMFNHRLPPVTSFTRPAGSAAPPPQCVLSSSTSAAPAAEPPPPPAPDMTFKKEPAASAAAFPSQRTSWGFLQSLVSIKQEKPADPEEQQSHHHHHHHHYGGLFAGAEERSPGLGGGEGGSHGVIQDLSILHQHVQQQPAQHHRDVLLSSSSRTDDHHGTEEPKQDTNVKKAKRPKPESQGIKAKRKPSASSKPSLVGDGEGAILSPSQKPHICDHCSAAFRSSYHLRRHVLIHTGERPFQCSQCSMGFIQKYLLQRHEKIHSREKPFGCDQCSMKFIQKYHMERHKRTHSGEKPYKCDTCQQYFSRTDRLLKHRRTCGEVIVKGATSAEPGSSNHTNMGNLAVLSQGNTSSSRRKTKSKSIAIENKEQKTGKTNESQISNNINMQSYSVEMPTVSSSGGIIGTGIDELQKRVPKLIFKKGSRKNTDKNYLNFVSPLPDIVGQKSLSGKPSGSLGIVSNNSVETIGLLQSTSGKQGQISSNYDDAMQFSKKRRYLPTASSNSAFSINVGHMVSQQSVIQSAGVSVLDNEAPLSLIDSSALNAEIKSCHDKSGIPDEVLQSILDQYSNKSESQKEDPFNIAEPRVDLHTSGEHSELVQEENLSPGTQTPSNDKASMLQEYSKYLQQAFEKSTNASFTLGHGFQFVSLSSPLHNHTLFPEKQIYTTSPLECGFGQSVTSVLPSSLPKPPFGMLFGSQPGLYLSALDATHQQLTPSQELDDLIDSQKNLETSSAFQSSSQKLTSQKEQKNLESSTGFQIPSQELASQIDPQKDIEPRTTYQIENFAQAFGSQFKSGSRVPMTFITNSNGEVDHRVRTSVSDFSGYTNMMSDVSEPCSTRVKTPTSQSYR

Target | thermal stability z-score [1, 3] | thermal stability z-score ([1]; arsenate co-treatment: none) | thermal stability z-score [2]
RBM28 (UniProt Q9NW13) | -0.0361 | -0.0267 | -0.81
DAAM1 (UniProt Q9Y4D1) | -0.0152 | -0.226 | 0.17
MAPK9 (UniProt P45984) | 0.00773 | -0.817 | -0.98
TRIM25 (UniProt Q14258) | -0.86 | -0.867 | -0.882
YARS2 (UniProt Q9Y2Z4) | -0.741 | -0.156 | 0.423
GMEB2 (UniProt Q9UKD1) | 0.0462 | -0.00217 | 0.453
AAMDC (UniProt Q9H7C9) | 1.03 | 0.608 | 0.207
ITPRIPL2 (UniProt Q3MIP1) | -0.176 | -0.34 | -0.0231
YY1 (UniProt P25490) | 0.0187 | -0.101 | 0.338
NFKB1 (UniProt P19838) | 0.0975 | 0.14 | -0.274
ASB9 (UniProt Q96DX5) | 0.263 | 0.826 | -0.202
WDR4 (UniProt P57081) | -0.105 | -0.0364 | 0.00243
EEF1A1 (UniProt P68104) | -0.0408 | 0.166 | 0.2
DNAJB6 (UniProt O75190) | 1.19 | 0.248 | 0.728
NSF (UniProt P46459) | -0.331 | -0.0542 | 0.232
XYLB (UniProt O75191) | -0.0179 | -0.17 | 0.149
RCC2 (UniProt Q9P258) | -0.997 | -0.671 | -0.0515
SRP14 (UniProt P37108) | -0.152 | -0.0661 | -0.436
TOP2A (UniProt P11388) | -0.141 | 0.0459 | -0.293
RAB29 (UniProt O14966) | 0.114 | -0.0606 | 0.157
MTMR10 (UniProt Q9NXD2) | -0.108 | 0.0107 | -0.188
APOB (UniProt P04114) | -0.228 | 0.0547 | -0.328
IVNS1ABP (UniProt Q9Y6Y0) | 0.601 | 0.743 | -0.145
TMEM30A (UniProt Q9NV96) | -0.45 | -0.161 | -0.845
CLEC16A (UniProt Q2KHT3) | 0.0777 | -0.0307 | -0.437
PIGO (UniProt Q8TEQ8) | -1.23 | -1.1 | -0.779
FAM98A (UniProt Q8NCA5) | -0.444 | -0.673 | -1.6
UBE2G1 (UniProt P62253) | 0.288 | 0.286 | 0.0592

Target | thermal stability z-score [1, 3] | thermal stability z-score ([1]; arsenate co-treatment: none) | thermal stability z-score [2]
NUDCD1 (UniProt Q96RS6) | -0.287 | -0.282 | -0.0861
PDCD2 (UniProt Q16342) | -0.0711 | -0.181 | -0.371
GMDS (UniProt O60547) | 0.538 | 0.00997 | -0.189
MTA1 (UniProt Q13330) | 0.06 | 0.414 | -1.05
MIS18A (UniProt Q9NYP9) | -0.127 | 0.246 | 0.683
ZNF281 (UniProt Q9Y2X9) | -0.165 | -0.214 | 0.133
TMEM165 (UniProt Q9HC07) | 0.669 | -0.0469 | 0.116
PTER (UniProt Q96BW5) | -0.116 | -0.966 | -0.311
OSBPL9 (UniProt Q96SU4) | -0.647 | -0.627 | 0.219
RPL24 (UniProt P83731) | 0.228 | -0.084 | -0.927
TDG (UniProt Q13569) | -0.0217 | -0.0438 | -0.322
ITGA3 (UniProt P26006) | 0.122 | 0.207 | 0.402
USP7 (UniProt Q93009) | 0.299 | 0.123 | -0.483
ECE1 (UniProt P42892) | -0.298 | -0.225 | -0.191
HDDC2 (UniProt Q7Z4H3) | -0.204 | -0.127 | -0.419
RNF113A (UniProt O15541) | -0.642 | -0.0196 | -0.554
CSRP2 (UniProt Q16527) | 0.688 | 0.0492 | -0.0511
ZNF593 (UniProt O00488) | 4.3 | 2.19 | -6.67
DLGAP4 (UniProt Q9Y2H0) | -0.0201 | -0.367 | -2.62
HTRA2 (UniProt O43464) | -0.984 | -0.617 | -0.816
CHD6 (UniProt Q8TD26) | -8.33e-05 | -0.00133 | -0.0483
KDM3B (UniProt Q7LBC6) | 0.258 | -0.0129 | 0.0976
SH3BGRL (UniProt O75368) | 0.42 | 0.213 | 0.235
PHF23 (UniProt Q9BUL5) | 0.843 | 0.376 | -3.81
RECQL (UniProt P46063) | 1.17 | 0.899 | -1.22
RPP25L (UniProt Q8N5L8) | 0.36 | 0.117 | 0.245
MATK (UniProt P42679) | -0.101 | -0.0941 | -0.0451
